± gives the expanded uncertainty stated by the source.
Key:
[1] = xn = mol fraction of the nth substance listed; conditions: 298.15 K, 101.33 kPa, Liquid, Vibrating tube method
[2] = Liquid; for mass density: 298.15 K, 101.33 kPa, Vibrating tube method; for Normal boiling temperature: Ebulliometric method (Recirculating still)
[3] = refractive index (Na D-line) (dimensionless); conditions: 298.15 K; 101.33 kPa; Liquid; Standard Abbe refractometry
[4] = excess molar enthalpy (molar enthalpy of mixing); xn = mol fraction of the nth substance listed; conditions: 298.15 K, 101.33 kPa, Liquid, Calvet calorimetry

CCC(=O)OC [methyl propanoate] + CCCCCCC
[1]
Conditions | mass density [kg/m3]
x1 = 0.064 | 687.65 ± 0.62
x1 = 0.1117 | 694.35 ± 0.64
x1 = 0.1561 | 700.97 ± 0.69
x1 = 0.2628 | 718.15 ± 0.74
x1 = 0.365 | 736.5 ± 0.8
x1 = 0.4343 | 750.1 ± 0.88
x1 = 0.5113 | 766.46 ± 0.94
x1 = 0.5683 | 779.43 ± 1
x1 = 0.6351 | 795.65 ± 1.1
x1 = 0.7017 | 812.9 ± 1.1
x1 = 0.7543 | 827.61 ± 1.2
x1 = 0.8136 | 845.12 ± 1.3
x1 = 0.8664 | 861.73 ± 1.4
x1 = 0.903 | 873.85 ± 1.4
x1 = 0.9689 | 896.98 ± 1.5

CCCCC(=O)OC [methyl pentanoate] + CCCCCCC
[1]
Conditions | mass density [kg/m3]
x1 = 0.0172 | 682.12 ± 0.74
x1 = 0.0613 | 689.72 ± 0.76
x1 = 0.1404 | 703.9 ± 0.77
x1 = 0.2074 | 716.09 ± 0.8
x1 = 0.2867 | 731.09 ± 0.82
x1 = 0.3552 | 744.33 ± 0.84
x1 = 0.4135 | 755.77 ± 0.86
x1 = 0.4931 | 771.88 ± 0.88
x1 = 0.5619 | 786.14 ± 0.91
x1 = 0.631 | 800.74 ± 0.93
x1 = 0.7038 | 816.52 ± 0.95
x1 = 0.7607 | 828.99 ± 0.98
x1 = 0.8392 | 846.84 ± 1
x1 = 0.9149 | 864.2 ± 1
x1 = 0.9531 | 873.23 ± 1.1
x1 = 0.9836 | 880.67 ± 1.1

CCCC(=O)OC [methyl butanoate] + CCCCCCC
[1]
Conditions | mass density [kg/m3]
x1 = 0.0337 | 684.36 ± 0.67
x1 = 0.0689 | 689.75 ± 0.68
x1 = 0.102 | 694.93 ± 0.7
x1 = 0.1531 | 703.25 ± 0.73
x1 = 0.2487 | 719.6 ± 0.76
x1 = 0.3261 | 733.58 ± 0.8
x1 = 0.3824 | 744.29 ± 0.84
x1 = 0.4586 | 759.5 ± 0.88
x1 = 0.5333 | 775.25 ± 0.93
x1 = 0.6085 | 791.88 ± 0.97
x1 = 0.6618 | 804.18 ± 1
x1 = 0.7161 | 817.1 ± 1.1
x1 = 0.7869 | 834.67 ± 1.1
x1 = 0.8394 | 848.24 ± 1.1
x1 = 0.8882 | 861.22 ± 1.2
x1 = 0.9255 | 871.41 ± 1.2

CCCC(=O)OC [methyl butanoate]
Conditions | Normal boiling temperature [°C] | mass density [kg/m3] | refractive index
[2] | 102.38 ± 0.2 | 892.52 ± 0.46 | –
[3] | – | – | 1.3852 ± 0.0008

COC(C)=O [methyl ethanoate]
Conditions | Normal boiling temperature [°C] | mass density [kg/m3] | refractive index
[2] | 56.70 ± 0.2 | 927.14 ± 0.47 | –
[3] | – | – | 1.3589 ± 0.0008

CCCCC(=O)OC [methyl pentanoate]
Conditions | mass density [kg/m3] | refractive index
[2] | 884.58 ± 0.46 | –
[3] | – | 1.3947 ± 0.0008

[2]
Conditions | vapor or sublimation pressure [kPa]
364.75 K | 32.01 ± 0.11
365.85 K | 33.33 ± 0.11
366.98 K | 34.67 ± 0.12
368.03 K | 36 ± 0.12
369.05 K | 37.33 ± 0.12
370.1 K | 38.66 ± 0.12
371.03 K | 40.01 ± 0.12
371.97 K | 41.33 ± 0.12
372.92 K | 42.66 ± 0.13
373.81 K | 43.99 ± 0.13
374.7 K | 45.33 ± 0.13
375.56 K | 46.64 ± 0.13
376.4 K | 48.01 ± 0.13
377.18 K | 49.33 ± 0.13
378.01 K | 50.64 ± 0.13
378.82 K | 51.98 ± 0.14
379.59 K | 53.33 ± 0.14
380.33 K | 54.67 ± 0.14
381.1 K | 56 ± 0.14
381.82 K | 57.33 ± 0.14
382.51 K | 58.67 ± 0.14
383.29 K | 59.99 ± 0.15
383.95 K | 61.33 ± 0.15
384.62 K | 62.68 ± 0.15
385.25 K | 63.99 ± 0.15
385.95 K | 65.33 ± 0.15
386.57 K | 66.66 ± 0.16
387.18 K | 67.99 ± 0.16
387.84 K | 69.32 ± 0.16
388.44 K | 70.66 ± 0.16
389.08 K | 71.99 ± 0.16
389.65 K | 73.33 ± 0.16
390.24 K | 74.65 ± 0.16
390.82 K | 76 ± 0.17
391.39 K | 77.3 ± 0.17
391.94 K | 78.66 ± 0.17
392.5 K | 79.99 ± 0.17
393.04 K | 81.33 ± 0.17
393.61 K | 82.66 ± 0.17
394.12 K | 83.98 ± 0.18
394.65 K | 85.33 ± 0.18
395.16 K | 86.66 ± 0.18
395.69 K | 88 ± 0.18
396.2 K | 89.33 ± 0.18
396.7 K | 90.67 ± 0.19
397.18 K | 91.98 ± 0.19
397.67 K | 93.35 ± 0.19
398.2 K | 94.67 ± 0.19
398.65 K | 95.99 ± 0.19
399.15 K | 97.32 ± 0.19
399.59 K | 98.66 ± 0.2
400.07 K | 99.99 ± 0.2
400.54 K | 101.32 ± 0.2
401 K | 102.66 ± 0.2
401.45 K | 104.01 ± 0.2
401.91 K | 105.33 ± 0.2
402.3 K | 106.66 ± 0.21
402.75 K | 107.99 ± 0.21
403.2 K | 109.32 ± 0.21
403.62 K | 110.58 ± 0.21
404.06 K | 111.98 ± 0.21
404.45 K | 113.3 ± 0.22
404.88 K | 114.66 ± 0.22
405.31 K | 115.99 ± 0.22
405.71 K | 117.32 ± 0.22
406.12 K | 118.69 ± 0.22
406.52 K | 119.98 ± 0.22
406.91 K | 121.36 ± 0.23
407.3 K | 122.64 ± 0.23
407.7 K | 124 ± 0.23
408.08 K | 125.32 ± 0.23
408.49 K | 126.67 ± 0.23
408.85 K | 127.99 ± 0.23
409.23 K | 129.32 ± 0.23
409.62 K | 130.64 ± 0.24
409.98 K | 132.01 ± 0.24
410.35 K | 133.34 ± 0.24
410.71 K | 134.64 ± 0.24
411.07 K | 135.99 ± 0.24
411.44 K | 137.33 ± 0.25
411.8 K | 138.63 ± 0.25
412.15 K | 139.99 ± 0.25
412.49 K | 141.33 ± 0.25
412.85 K | 142.67 ± 0.25
413.21 K | 143.99 ± 0.25
413.55 K | 145.32 ± 0.26
413.89 K | 146.65 ± 0.26
414.22 K | 148 ± 0.26
414.55 K | 149.34 ± 0.26
414.91 K | 150.65 ± 0.26
415.23 K | 151.99 ± 0.27
415.57 K | 153.32 ± 0.27
415.87 K | 154.61 ± 0.27
416.21 K | 155.97 ± 0.27
416.55 K | 157.29 ± 0.27
416.87 K | 158.66 ± 0.27
417.18 K | 159.97 ± 0.28

CCCCCCC [heptane]
Conditions | Normal boiling temperature [°C] | mass density [kg/m3] | refractive index
[2] | 98.20 ± 0.49 | 679.3 ± 0.45 | –
[3] | – | – | 1.3853 ± 0.0007

COC=O [methyl methanoate]
Conditions | Normal boiling temperature [°C] | mass density [kg/m3] | refractive index
[2] | 31.64 ± 0.2 | 966.18 ± 0.49 | –
[3] | – | – | 1.3412 ± 0.0008

COC(C)=O [methyl ethanoate] + CCCCCCC
[1]
Conditions | mass density [kg/m3]
x1 = 0.0676 | 686.77 ± 0.36
x1 = 0.1019 | 690.81 ± 0.37
x1 = 0.1594 | 698.12 ± 0.39
x1 = 0.2497 | 710.82 ± 0.42
x1 = 0.3137 | 721.1 ± 0.46
x1 = 0.4011 | 736.76 ± 0.49
x1 = 0.4829 | 753.42 ± 0.54
x1 = 0.5498 | 768.76 ± 0.59
x1 = 0.6215 | 786.97 ± 0.64
x1 = 0.6765 | 802.41 ± 0.69
x1 = 0.7204 | 815.61 ± 0.74
x1 = 0.7841 | 836.35 ± 0.79
x1 = 0.8342 | 854.72 ± 0.86
x1 = 0.8837 | 873.99 ± 0.92
x1 = 0.9248 | 891.52 ± 0.99
x1 = 0.9632 | 908.98 ± 1

CCC(=O)OC [methyl propanoate]
Conditions | Normal boiling temperature [°C] | mass density [kg/m3] | refractive index
[2] | 78.50 ± 0.2 | 908.59 ± 0.47 | –
[3] | – | – | 1.3745 ± 0.0008

COC=O [methyl methanoate] + CCCCCCC
Conditions | excess molar enthalpy [kcal/mol] | mass density [kg/m3]
[1], x1 = 0.042 | – | 682.76 ± 0.3
[1], x1 = 0.1206 | – | 689.96 ± 0.33
[1], x1 = 0.2235 | – | 702.15 ± 0.38
[1], x1 = 0.3614 | – | 723.34 ± 0.44
[1], x1 = 0.4593 | – | 741.73 ± 0.51
[1], x1 = 0.5364 | – | 759.27 ± 0.59
[1], x1 = 0.6079 | – | 778.2 ± 0.66
[1], x1 = 0.6651 | – | 795.64 ± 0.78
[1], x1 = 0.7799 | – | 837.8 ± 0.87
[1], x1 = 0.8321 | – | 861.36 ± 1
[1], x1 = 0.8729 | – | 882.18 ± 1.2
[1], x1 = 0.911 | – | 904.19 ± 1.3
[1], x1 = 0.946 | – | 926.26 ± 1.4
[1], x1 = 0.9736 | – | 945.92 ± 1.6
[1], x1 = 0.9935 | – | 961.3 ± 1.6
[4], x1 = 0.0673 | 0.123 ± 0.00382 | –
[4], x1 = 0.1535 | 0.268 ± 0.00454 | –
[4], x1 = 0.2499 | 0.403 ± 0.0055 | –
[4], x1 = 0.3332 | 0.484 ± 0.00621 | –
[4], x1 = 0.4008 | 0.52 ± 0.00645 | –
[4], x1 = 0.4555 | 0.538 ± 0.00669 | –
[4], x1 = 0.5004 | 0.546 ± 0.00669 | –
[4], x1 = 0.5354 | 0.546 ± 0.00669 | –
[4], x1 = 0.5709 | 0.545 ± 0.00669 | –
[4], x1 = 0.6389 | 0.521 ± 0.00645 | –
[4], x1 = 0.6745 | 0.506 ± 0.00645 | –
[4], x1 = 0.7144 | 0.479 ± 0.00621 | –
[4], x1 = 0.7527 | 0.452 ± 0.00598 | –
[4], x1 = 0.794 | 0.412 ± 0.00574 | –
[4], x1 = 0.8313 | 0.363 ± 0.00526 | –
[4], x1 = 0.8721 | 0.303 ± 0.00502 | –
[4], x1 = 0.9068 | 0.234 ± 0.00502 | –
[4], x1 = 0.9426 | 0.157 ± 0.00502 | –
[4], x1 = 0.973 | 0.0807 ± 0.00502 | –

— the NIST ThermoML archive (doi:10.1021/je030117d)
